In patent US6809065B2, “Herbicide containing substituted pyrazole derivative as active ingredient” (SDS Biotech K.K., priority 2001, dated 2004):

Tests used:
Chenopodium album [1] = assay: Upland field foliage treatment (Test Example 1); format: in vivo; conditions: foliage treatment 14th day after sowing, wettable powder, 1 kg active ingredient per hectare, evaluated 21st day after application
Procedure, shortened: (§1)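 Weeds and crops were sown in upland soil under about 1 cm cover, and a wettable powder diluted in water was sprayed on the foliage 14 days after sowing at 1 kg active ingredient per hectare. Scoring was done 21 days after application on an index scale, where higher weed scores mean stronger herbicidal effect and lower crop scores mean greater crop safety.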

Digitaria adscendens [2] = assay: Upland field foliage treatment (Test Example 1); format: in vivo; conditions: foliage treatment 14th day after sowing, wettable powder, 1 kg active ingredient per hectare, evaluated 21st day after application
Procedure, shortened: as §1

Setaria viridis [3] = assay: Upland field foliage treatment (Test Example 1); format: in vivo; conditions: foliage treatment 14th day after sowing, wettable powder, 1 kg active ingredient per hectare, evaluated 21st day after application
Procedure, shortened: as §1

Stellaria media [4] = assay: Upland field foliage treatment (Test Example 1); format: in vivo; conditions: foliage treatment 14th day after sowing, wettable powder, 1 kg active ingredient per hectare, evaluated 21st day after application
Procedure, shortened: as §1

soybean (Glycine max) [5] = assay: Upland field foliage treatment (Test Example 1), crop; format: in vivo; conditions: foliage treatment 14th day after sowing, 1 kg active ingredient per hectare, evaluated 21st day, lower index = higher safety
Procedure, shortened: as §1

[6] = system: wheat (Triticum aestivum); assay: as above; format: in vivo; conditions: foliage treatment 14th day after sowing, 1 kg active ingredient per hectare, evaluated 21st day, lower index = higher safety
Procedure, shortened: as §1

Chenopodium album [7] = assay: Upland soil treatment (Test Example 2); format: in vivo; conditions: soil surface treatment next day after sowing, wettable powder, 1 kg active ingredient per hectare, evaluated 21st day after application
Procedure, shortened: (§2)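 Pre-emergence soil treatment: day after sowing, WP formulation diluted in water, applied uniformly to soil surface at 1 kg a.i./ha. Seeds sown ~1 cm deep in upland soil. Visual index read 21 d after application (weeds: high = effective; crop: low = safe).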

Digitaria adscendens [8] = assay: Upland soil treatment (Test Example 2); format: in vivo; conditions: soil surface treatment next day after sowing, wettable powder, 1 kg active ingredient per hectare, evaluated 21st day after application
Procedure, shortened: as §2

Setaria viridis [9] = assay: Upland soil treatment (Test Example 2); format: in vivo; conditions: soil surface treatment next day after sowing, wettable powder, 1 kg active ingredient per hectare, evaluated 21st day after application
Procedure, shortened: as §2

Stellaria media [10] = assay: Upland soil treatment (Test Example 2); format: in vivo; conditions: soil surface treatment next day after sowing, wettable powder, 1 kg active ingredient per hectare, evaluated 21st day after application
Procedure, shortened: as §2

soybean (Glycine max) [11] = assay: Upland soil treatment (Test Example 2), crop; format: in vivo; conditions: soil surface treatment next day after sowing, 1 kg active ingredient per hectare, evaluated 21st day, lower index = higher safety
Procedure, shortened: as §2

[12] = system: wheat (Triticum aestivum); assay: Upland soil treatment (Test Example 2), crop; format: in vivo; conditions: soil surface treatment next day after sowing, 1 kg active ingredient per hectare, evaluated 21st day, lower index = higher safety
Procedure, shortened: as §2

Echinochloa spp. = assay: Paddy field treatment (Test Example 3); format: in vivo, Echinochloa crusgalli; conditions: paddy pot, submerged 4 cm, dropped on water surface 10th day after transplantation, 1 kg active ingredient per hectare, evaluated 21st day
Procedure, shortened: (§3)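 Weeds sown in puddled paddy soil under 4 cm water, with two-leaf Koshihikari rice transplanted at 3 cm depth. On day 10 after transplanting, wettable powder applied to the water surface at 1 kg active ingredient per hectare. Herbicidal effect and crop safety scored on an index 21 days later.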

Ammannia multiflora = assay: Paddy field treatment (Test Example 3); format: in vivo; conditions: paddy pot, submerged 4 cm, dropped on water surface 10th day after transplantation, 1 kg active ingredient per hectare, evaluated 21st day
Procedure, shortened: as §3

Monochoria vaginalis = assay: Paddy field treatment (Test Example 3); format: in vivo; conditions: paddy pot, submerged 4 cm, dropped on water surface 10th day after transplantation, 1 kg active ingredient per hectare, evaluated 21st day
Procedure, shortened: as §3

Scirpus juncoides = assay: Paddy field treatment (Test Example 3); format: in vivo; conditions: paddy pot, submerged 4 cm, dropped on water surface 10th day after transplantation, 1 kg active ingredient per hectare, evaluated 21st day
Procedure, shortened: as §3

[13] = system: rice (Oryza sative, variety: Koshihikari); assay: Paddy field treatment (Test Example 3), crop; format: in vivo, Oryza sativa; conditions: transplanted rice two-leaf period, water surface treatment 10th day after transplantation, 1 kg active ingredient per hectare, evaluated 21st day, lower index = higher safety
Procedure, shortened: as §3

SMILES | Herbicidal activity Chenopodium album (Chenopodium album [1]) | Herbicidal activity Digitaria adscendens (Digitaria adscendens [2]) | Herbicidal activity Setaria viridis (Setaria viridis [3]) | Herbicidal activity Stellaria media (Stellaria media [4]) | Herbicidal activity Glycine max (soybean (Glycine max) [5]) | Herbicidal activity Triticum aestivum [6] | Herbicidal activity Chenopodium album (Chenopodium album [7]) | Herbicidal activity Digitaria adscendens (Digitaria adscendens [8]) | Herbicidal activity Setaria viridis (Setaria viridis [9]) | Herbicidal activity Stellaria media (Stellaria media [10]) | Herbicidal activity Glycine max (soybean (Glycine max) [11]) | Herbicidal activity Triticum aestivum [12] | Herbicidal activity Echinochloa spp. (Echinochloa spp.) | Herbicidal activity Ammannia multiflora (Ammannia multiflora) | Herbicidal activity Monochoria vaginalis (Monochoria vaginalis) | Herbicidal activity Scirpus juncoides (Scirpus juncoides) | Herbicidal activity Oryza sativa [13]
CCc1c(Br)c(-c2ccccc2)nn1CC(=COC)C(=O)OC [Compound 43] | 5 (herbicidal effect of not less than 90% by weight) | 4 (herbicidal effect of not less than 70% by weight and less than 90% by weight) | 4 (herbicidal effect of not less than 70% by weight and less than 90% by weight) | 5 (herbicidal effect of not less than 90% by weight) | 0 (herbicidal effect of not less than 0% by weight and less than 10% by weight) | 0 (herbicidal effect of not less than 0% by weight and less than 10% by weight) | 4 (herbicidal effect of not less than 70% by weight and less than 90% by weight) | 4 (herbicidal effect of not less than 70% by weight and less than 90% by weight) | 4 (herbicidal effect of not less than 70% by weight and less than 90% by weight) | 4 (herbicidal effect of not less than 70% by weight and less than 90% by weight) | 0 (herbicidal effect of not less than 0% by weight and less than 10% by weight) | 0 (herbicidal effect of not less than 0% by weight and less than 10% by weight) | 3 (herbicidal effect of not less than 50% by weight and less than 70% by weight) | 3 (herbicidal effect of not less than 50% by weight and less than 70% by weight) | 3 (herbicidal effect of not less than 50% by weight and less than 70% by weight) | 4 (herbicidal effect of not less than 70% by weight and less than 90% by weight) | 0 (herbicidal effect of not less than 0% by weight and less than 10% by weight)
COC=C(Cn1nc(-c2cccc(Cl)c2Cl)c(Br)c1C)C(=O)OC [Compound 29] | 5 (herbicidal effect of not less than 90% by weight) | 5 (herbicidal effect of not less than 90% by weight) | 4 (herbicidal effect of not less than 70% by weight and less than 90% by weight) | 5 (herbicidal effect of not less than 90% by weight) | 1 (herbicidal effect of not less than 10% by weight and less than 30% by weight) | 1 (herbicidal effect of not less than 10% by weight and less than 30% by weight) | 4 (herbicidal effect of not less than 70% by weight and less than 90% by weight) | 4 (herbicidal effect of not less than 70% by weight and less than 90% by weight) | 4 (herbicidal effect of not less than 70% by weight and less than 90% by weight) | 4 (herbicidal effect of not less than 70% by weight and less than 90% by weight) | 0 (herbicidal effect of not less than 0% by weight and less than 10% by weight) | 0 (herbicidal effect of not less than 0% by weight and less than 10% by weight) | 4 (herbicidal effect of not less than 70% by weight and less than 90% by weight) | 5 (herbicidal effect of not less than 90% by weight) | 5 (herbicidal effect of not less than 90% by weight) | 4 (herbicidal effect of not less than 70% by weight and less than 90% by weight) | 0 (herbicidal effect of not less than 0% by weight and less than 10% by weight)
COC=C(Cn1nc(-c2cc(Cl)cc(Cl)c2)cc1C)C(=O)OC [Compound 11] | 4 (herbicidal effect of not less than 70% by weight and less than 90% by weight) | 4 (herbicidal effect of not less than 70% by weight and less than 90% by weight) | 4 (herbicidal effect of not less than 70% by weight and less than 90% by weight) | 4 (herbicidal effect of not less than 70% by weight and less than 90% by weight) | 0 (herbicidal effect of not less than 0% by weight and less than 10% by weight) | 0 (herbicidal effect of not less than 0% by weight and less than 10% by weight) | 4 (herbicidal effect of not less than 70% by weight and less than 90% by weight) | 4 (herbicidal effect of not less than 70% by weight and less than 90% by weight) | 4 (herbicidal effect of not less than 70% by weight and less than 90% by weight) | 4 (herbicidal effect of not less than 70% by weight and less than 90% by weight) | 0 (herbicidal effect of not less than 0% by weight and less than 10% by weight) | 0 (herbicidal effect of not less than 0% by weight and less than 10% by weight) | 3 (herbicidal effect of not less than 50% by weight and less than 70% by weight) | 3 (herbicidal effect of not less than 50% by weight and less than 70% by weight) | 3 (herbicidal effect of not less than 50% by weight and less than 70% by weight) | 3 (herbicidal effect of not less than 50% by weight and less than 70% by weight) | 0 (herbicidal effect of not less than 0% by weight and less than 10% by weight)
COC=C(Cn1nc(-c2ccc(Cl)cc2Cl)c(Br)c1C)C(=O)OC [Compound 30] | 5 (herbicidal effect of not less than 90% by weight) | 5 (herbicidal effect of not less than 90% by weight) | 4 (herbicidal effect of not less than 70% by weight and less than 90% by weight) | 5 (herbicidal effect of not less than 90% by weight) | 1 (herbicidal effect of not less than 10% by weight and less than 30% by weight) | 0 (herbicidal effect of not less than 0% by weight and less than 10% by weight) | 4 (herbicidal effect of not less than 70% by weight and less than 90% by weight) | 5 (herbicidal effect of not less than 90% by weight) | 5 (herbicidal effect of not less than 90% by weight) | 4 (herbicidal effect of not less than 70% by weight and less than 90% by weight) | 0 (herbicidal effect of not less than 0% by weight and less than 10% by weight) | 0 (herbicidal effect of not less than 0% by weight and less than 10% by weight) | 4 (herbicidal effect of not less than 70% by weight and less than 90% by weight) | 5 (herbicidal effect of not less than 90% by weight) | 5 (herbicidal effect of not less than 90% by weight) | 4 (herbicidal effect of not less than 70% by weight and less than 90% by weight) | 0 (herbicidal effect of not less than 0% by weight and less than 10% by weight)
